{"source": "paper PMC5433098", "about": "“Intrinsic Toxin-Derived Peptides Destabilize and Inactivate Clostridium difficile TcdB” (mBio, 2017)", "key": {"TcdB1 [1]": {"test_system": "TcdB1", "test": "Cytotoxicity assay in CHO-K1 cells (CCK-8)", "assay_type": "cell-based, Clostridium difficile", "conditions": "24 h, 50 µM peptide, n = 3", "description": "(§1) In cytotoxicity assays, CHO-K1 cells were seeded in 96-well plates at a density of 1.0 × 10^4 cells/well and allowed to attach overnight. Cells were incubated with toxin or toxin plus peptide for 24 h, and then cell viability was quantified by the cell counting kit 8 (CCK-8) assay (Sigma), a WST-8 dye-based colorimetric reaction."}, "TcdB2 [2]": {"test_system": "TcdB2", "test": "Cytotoxicity assay in CHO-K1 cells (CCK-8)", "assay_type": "cell-based, Clostridium difficile", "conditions": "24 h, 50 µM peptide, n = 3", "description": "as §1"}, "TcdA": {"test_system": "TcdA", "test": "Cytotoxicity assay in CHO-K1 cells", "assay_type": "cell-based, Clostridium difficile", "conditions": "24 h, 50 µM peptide, n = 3", "description": "as §1"}, "TcdB2Δ1853–2366 [3]": {"test_system": "TcdB2Δ1853–2366", "test": "Cytotoxicity assay in CHO-K1 cells", "assay_type": "cell-based, Clostridium difficile", "conditions": "24 h, n = 3", "description": "as §1"}, "TcdB [4]": {"test_system": "TcdB", "test": "Intracellular Rac1 glucosylation in CHO-K1 cells (immunoblot)", "assay_type": "cell-based, Clostridium difficile", "conditions": "TcdB 0.037-3.7 pM, 25 h, 50 µM peptide", "description": "CHO-K1 cells were cultured as described above and were seeded the day before the experiment in 24-well plates at a density of 5.0 × 10^4 cells/well. TcdB was then combined with peptide in complete culture medium and added to cells. Following this exposure, total proteins were extracted by removing culture medium and adding cold lysis buffer (1% SDS, 50 mM Tris-HCl [pH 7.4], 5 mM EDTA, and a protease inhibitor mixture). For each condition, equal amounts of total protein were analyzed by immunoblot probing with a mouse monoclonal antibody to total Rac1 (EMD Millipore; catalog no. 05-389) or a mouse monoclonal antibody recognizing nonglucosylated Rac1 (BD Bioscience; catalog no. 610651)."}, "TcdB [5]": {"test_system": "TcdB", "test": "In vitro Rac1 glucosylation assay", "assay_type": "biochemical, Clostridium difficile", "conditions": "TcdB 1.2-24 nM, 400 nM GST-Rac1, 40 μM UDP-glucose, 37°C 1 h, 50 µM peptide, n = 3", "description": "(§2) To determine how PepB2 influences the glucosylation activity of TcdB, 400 nM purified GST-Rac1 and 40 μM UDP-glucose were combined with a range of concentrations of TcdB (1.2 nM to 24 nM) or GTD (0.5 nM to 25 nM). These reactions were performed in 20 μl of buffer consisting of 50 mM HEPES (pH 7.5), 100 mM KCl, 2 mM MgCl2, 1 mM MnCl2, and 100 μg/ml BSA. The reactions were carried out at 37°C for 1 h and were stopped by heating the samples at 95°C for 7 min in sample buffer (62.5 mM Tris-HCl [pH 6.8], 2% SDS, 10% glycerol, 5% β-mercaptoethanol, and 0.001% bromphenol blue). An immunoblotting assay was then performed by probing with a mouse monoclonal antibody to total Rac1 (EMD Millipore; catalog no. 05-389) or a mouse monoclonal antibody recognizing nonglucosylated Rac1 (BD Bioscience; catalog no. 610651)."}, "[6]": {"test_system": "purified recombinant GTD (TcdB aa 1 to 543)", "test": "In vitro Rac1 glucosylation assay", "assay_type": "biochemical, Clostridium difficile", "conditions": "GTD 0.5-25 nM, 50 µM peptide, n = 2", "description": "as §2"}, "TcdB [7]": {"test_system": "TcdB", "test": "In vitro autoprocessing assay with IP6", "assay_type": "biochemical, Clostridium difficile", "conditions": "37 pM TcdB, 500 µM IP6, 1 h 37°C, 50 µM peptide, n = 4", "description": "TcdB autoprocessing was activated by incubating 37 pM TcdB with 500 µM inositol hexakisphosphate (IP6) for 1 h at 37°C in a buffer consisting of 50 mM HEPES (pH 7.5), 150 mM NaCl, and 20 mM dithiothreitol (DTT). After the reaction was stopped by heating the samples at 95°C for 7 min in SDS-PAGE sample buffer, cleavage of TcdB was evaluated by an immunoblot assay probing with antibodies to the amino-terminal domain of TcdB (R&D Systems; catalog no. AF6246)."}, "TcdB [8]": {"test_system": "TcdB", "test": "TcdB associating with CHO-K1 cells (immunoblot)", "assay_type": "cell-based, Clostridium difficile", "conditions": "37°C, 4 nM TcdB, 50 µM peptide", "description": "CHO-K1 cells were cultured as described above and were seeded the day before the experiment in 12-well plates at a density of 1.0 × 10^5 cells/well. These cells were then exposed for 10 min or 30 min at 37°C to 4 nM of TcdB in the presence and absence of peptide. After this exposure, the cells were then washed twice with 1 ml of complete medium, and then total proteins were extracted by adding cold lysis buffer (1% SDS, 50 mM Tris-HCl [pH 7.4], 5 mM EDTA, and a protease inhibitor mixture). For each condition, equal amounts of total protein were analyzed by immunoblot probing with antibodies to the amino-terminal domain of TcdB (R&D Systems; catalog no. AF6246) or an antibody to glyceraldehyde-3-phosphate dehydrogenase (GAPDH) (Abcam; catalog no. AB8245)."}, "TcdB2 [9]": {"test_system": "TcdB2", "test": "Surface plasmon resonance (SPR)", "assay_type": "binding, Clostridium difficile", "description": "(§3) Surface plasmon resonance (SPR) analysis was performed using a Biacore 3000 instrument (OMRF Biacore Core Facility). TcdB2, TcdB2Δ1853–2366, TcdB2_1851–2366, or BSA was captured on a CM5 sensor chip via amine coupling chemistry based on EDC/N-hydroxysuccinimide (NHS) activation of the carboxymethyl groups of the sensor chip surface. For TcdB2 conjugation, 1 μM TcdB2 or TcdB2Δ1853–2366 was injected at a flow rate of 10 μl/min. TcdB2_1851–2366 was injected at a concentration of 2.5 μM with a flow rate of 10 μl/min. After protein conjugation, ethanolamine was passed over the sensor chip to deactivate unreacted NHS esters. The running buffer used for the binding experiments consisted of 25 mM HEPES (pH 7.4), 150 mM NaCl, and 0.01% Tween 20, and the chip regeneration buffer consisted of 50 mM NaOH and 1 M NaCl."}, "TcdB2Δ1853–2366 [10]": {"test_system": "TcdB2Δ1853–2366", "test": "Surface plasmon resonance (SPR)", "assay_type": "binding, Clostridium difficile", "conditions": "40 µM PepB2, 20 μl/min, 25°C", "description": "as §3"}, "[11]": {"test_system": "bovine serum albumin (BSA)", "test": "Surface plasmon resonance (SPR), reference channel", "assay_type": "binding", "description": "as §3"}, "[12]": {"test": "Oligomerization by BS3 cross-linking and SDS-PAGE", "assay_type": "physicochemical", "conditions": "1.4 mM peptide, 5 mM BS3, 25 mM HEPES pH 7.4, 150 mM NaCl, 30 min 25°C; 4 to 20% SDS-PAGE, Coomassie", "description": "Peptides were cross-linked using bis(sulfosuccinimidyl)suberate (BS^3), which is a water-soluble homobifunctional cross-linking agent that reacts with primary amine groups. The cross-linking reaction was performed with 1.4 mM peptide and 5 mM BS^3 in a buffer consisting of 25 mM HEPES (pH 7.4) and 150 mM NaCl. The reaction proceeded for 30 min at 25°C and then was quenched with 100 mM Tris, pH 8.0."}, "TcdB [13]": {"test_system": "TcdB", "test": "Dialysis (50-kDa cutoff) followed by cytotoxicity assay in CHO-K1 cells", "assay_type": "cell-based, Clostridium difficile", "conditions": "for TcdB-inhibitory activity retained after dialysis: 125 μM inhibitor in serum-free F-12–K, 50-kDa-cutoff membrane into PBS, about 62.5 μM tested, CHO-K1, 24 h, 0.4 pM TcdB, n = 3", "description": "as §1\nInhibitors were diluted to 125 μM in F-12–K medium lacking FBS. Then, 1 ml of the diluted inhibitor was dialyzed with a 50-kDa-cutoff membrane into 2 liters of PBS while stirring. After 3 h, the PBS was discarded and replaced with an additional 1.5 liters of PBS. After 2 more hours of stirring dialysis, the inhibitors were removed from the dialysis tube and diluted into F-12–K medium containing 20% FBS. This produced an inhibitor concentration of approximately 62.5 μM that was then tested for TcdB inhibition using a cytotoxicity assay described above. As controls, a portion of the diluted inhibitors were subjected to mock dialysis conditions and also tested in a cytotoxicity assay."}, "[14]": {"test_system": "Bacillus anthracis lethal toxin (LT)"}, "TcdB1 [15]": {"test_system": "TcdB1", "test": "Transepithelial electrical resistance (TER) in T84 cells", "conditions": "polarized T84 cells, 40 pM TcdB1, 50 µM peptide, n = 4"}}}
{"compound": "CC[C@H](C)[C@H](NC(=O)[C@H](CCCCN)NC(=O)[C@H](CC(=O)O)NC(=O)[C@H](CO)NC(=O)[C@@H](NC(=O)[C@@H](NC(=O)[C@H](CC(N)=O)NC(=O)CNC(=O)[C@H](CCCCN)NC(=O)[C@H](Cc1ccccc1)NC(=O)[C@@H](NC(=O)[C@@H](N)CC(N)=O)C(C)C)[C@@H](C)O)[C@@H](C)CC)C(=O)N[C@@H](CO)C(=O)N[C@@H](Cc1ccccc1)C(=O)N[C@@H](CC(N)=O)C(=O)N[C@@H](Cc1ccccc1)C(=O)N[C@@H](CO)C(=O)N[C@@H](CC(=O)O)C(=O)N[C@@H](CCCCN)C(=O)O", "note": "[PepB2]", "values": [{"measurement": "increase of the 50% toxic concentration (TC50) of TcdB1", "setting": "TcdB1 [1]; range of toxin concentrations", "result": 500, "unit": "fold"}, {"measurement": "increase of the 50% toxic concentration (TC50) of TcdB2", "setting": "TcdB2 [2]; range of toxin concentrations", "result": 200, "unit": "fold"}, {"measurement": "inhibition of TcdA cytotoxicity", "setting": "TcdA", "result": "did not block cytotoxicity"}, {"measurement": "decrease in sensitivity of TcdB2Δ1853–2366 to peptide relative to full-length TcdB2", "setting": "TcdB2Δ1853–2366 [3]", "result": 10, "unit": "fold"}, {"measurement": "effect on Rac1 glucosylation by TcdB in treated cells", "setting": "TcdB [4]", "result": "prevented Rac1 glucosylation by TcdB in treated cells"}, {"measurement": "effect on in vitro glucosylation of Rac1 by TcdB", "setting": "TcdB [5]", "result": "did not suppress the in vitro glucosylation of Rac1 by TcdB but instead appeared to increase enzymatic activity"}, {"measurement": "effect on glucosyltransferase activity of purified recombinant GTD", "setting": "[6]", "result": "no effect on the glucosyltransferase activity"}, {"measurement": "effect on IP6-induced TcdB autoproteolysis", "setting": "TcdB [7]", "result": "enhanced the efficiency of IP6-induced TcdB autoproteolysis"}, {"measurement": "TcdB association with cells, 10 min", "setting": "TcdB [8]; 10 min, n = 4", "result": "significantly reduced"}, {"measurement": "TcdB association with cells, 30 min", "setting": "TcdB [8]; 30 min", "result": "not reduced"}, {"measurement": "TcdB proteolytic cleavage on cells, 30 min", "setting": "TcdB [8]; 30 min", "result": "causes TcdB to become susceptible to proteolytic cleavage"}, {"measurement": "binding to sensor chip-immobilized TcdB", "setting": "TcdB2 [9]; SPR, Biacore 3000, CM5 chip, 5 μl/min, 25°C, BSA reference subtracted", "result": "binds TcdB"}, {"measurement": "number of peptide molecules bound per single molecule of TcdB", "setting": "TcdB2 [9]; calculated from change in response units on immobilized TcdB", "result": "approximately 250 molecules"}, {"measurement": "binding to TcdB2Δ1853–2366 compared with equal moles of TcdB2", "setting": "TcdB2Δ1853–2366 [10]", "result": "much higher levels of PepB2 bound TcdB2 than TcdB2Δ1853–2366"}, {"measurement": "binding to BSA-coated reference channel", "setting": "[11]", "result": "did not bind"}, {"measurement": "oligomerization after BS3 cross-linking", "setting": "[12]", "result": "unable to migrate by SDS-PAGE"}, {"measurement": "TcdB-inhibitory activity retained after dialysis", "setting": "TcdB [13]", "result": "TcdB-inhibitory activity was not removed"}, {"measurement": "size of inhibitory oligomer", "setting": "TcdB [13]; retained by 50-kDa-cutoff dialysis membrane", "result": "> 50", "unit": "kDa"}, {"measurement": "inhibition of Bacillus anthracis lethal toxin cytotoxicity", "setting": "[14]", "result": "did not block cytotoxicity"}, {"measurement": "effect on TcdB-mediated disruption of transepithelial resistance", "setting": "TcdB1 [15]", "result": "prevented TcdB-mediated disruption of transepithelial resistance"}]}
{"compound": "COC(=O)CC[C@@H](C)[C@H]1CC[C@H]2[C@@H]3[C@H](O)C[C@@H]4C[C@H](O)CC[C@]4(C)[C@H]3C[C@H](O)[C@]12C", "note": "[methyl cholate, reference compound]", "values": [{"measurement": "TcdB-inhibitory activity retained after dialysis", "setting": "TcdB [13]", "result": "toxin-inhibitory activity was lost"}]}
{"compound": "PepB1: peptide based on the 1769-to-1787 region of TcdB1 (NVFKDKTLANKLSFNFSDK; UniProt P18177 1769-1787, looked up, fragment)", "values": [{"measurement": "inhibition of TcdB1 cytotoxicity", "setting": "TcdB1 [1]", "result": "did not inhibit the cytotoxicity"}, {"measurement": "inhibition of TcdB2 cytotoxicity", "setting": "TcdB2 [2]", "result": "did not inhibit the cytotoxicity"}, {"measurement": "oligomerization after BS3 cross-linking", "setting": "[12]", "result": "migrated into the gel in a similar pattern as uncross-linked control peptides"}]}
